Molecular target: Metabotropic glutamate receptor 2 (Homo sapiens, UniProt Q14416)
Assay: [35S]GTPgammaS Binding Assay: The frozen cell membrane fraction prepared as described above was thawed before use, and the resultant was diluted with a buffer for a binding assay (final concentrations: 20 mM HEPES, 100 mM NaCl, 1 mM MgCl2, 3 uM GDP, 300 ug/mL saponin, 0.1% BSA). The compound of each example was added to a cell membrane fraction containing 1.8 to 3 ug/assay of membrane protein on a plate, followed by incubation at room temperature for 30 minutes. Thereafter, with glutamic acid (in a final concentration of 10 uM) added thereto, incubation was performed at room temperature for 15 minutes, and thereafter, [35S]GTPγS (in a final concentration of 0.8 kBq) and 588 ug WGA-SPA beads were added thereto, followed by incubation at room temperature for 1 hour. After the incubation, the plate was subjected to the centrifugal separation at 2,500 rpm and room temperature, and then, membrane cell binding radioactivity was measured with a top count. A [35S]GTPγS binding amount obtained in the presence of glutamic acid was defined as specific binding. On the basis of ratios of inhibiting the specific binding at various concentrations of the compounds of the respective examples, inhibition curves were obtained. […]
Assay type: functional

Metabotropic glutamate receptor 2, sequence (Q14416 whole entry): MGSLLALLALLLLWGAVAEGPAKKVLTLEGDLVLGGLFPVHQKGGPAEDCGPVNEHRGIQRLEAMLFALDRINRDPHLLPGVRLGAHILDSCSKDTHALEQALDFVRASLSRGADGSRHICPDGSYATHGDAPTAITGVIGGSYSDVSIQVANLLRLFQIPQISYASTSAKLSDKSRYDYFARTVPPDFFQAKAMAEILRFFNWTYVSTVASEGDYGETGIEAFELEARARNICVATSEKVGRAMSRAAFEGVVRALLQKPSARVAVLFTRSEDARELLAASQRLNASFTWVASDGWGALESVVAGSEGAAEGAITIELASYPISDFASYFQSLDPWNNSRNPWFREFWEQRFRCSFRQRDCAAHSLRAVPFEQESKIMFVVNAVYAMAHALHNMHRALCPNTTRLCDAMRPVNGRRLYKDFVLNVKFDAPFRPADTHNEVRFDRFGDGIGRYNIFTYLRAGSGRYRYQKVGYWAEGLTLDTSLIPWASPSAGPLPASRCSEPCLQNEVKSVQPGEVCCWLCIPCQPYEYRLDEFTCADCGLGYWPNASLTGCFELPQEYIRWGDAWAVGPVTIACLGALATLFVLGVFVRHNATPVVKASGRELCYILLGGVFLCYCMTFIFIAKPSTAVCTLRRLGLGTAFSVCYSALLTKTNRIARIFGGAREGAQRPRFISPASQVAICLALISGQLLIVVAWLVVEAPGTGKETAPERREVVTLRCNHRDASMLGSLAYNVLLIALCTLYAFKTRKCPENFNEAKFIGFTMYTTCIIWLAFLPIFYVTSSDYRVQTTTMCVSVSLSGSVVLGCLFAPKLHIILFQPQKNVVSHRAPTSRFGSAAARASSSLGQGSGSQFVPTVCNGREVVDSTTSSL

- IC50: 4.2 nM
SMILES: CCc1ccc(-c2nc(-c3cc(C)nc(C)c3)c3n2C[C@@H](C)OCC3)cc1OC
